Measured values taken from patent US20250296948A1, “SYNTHESIS OF NUCLEOSIDE DERIVATIVES” (Nucana plc, priority 2022, published 2025).

How the values were obtained:
[1] = 6 month dry powder stability, HPLC assay; format: physicochemical
From the text: (§1) NUC-3373 prepared according to Example 3 and Comparative Example 4 was packed into a transparent LDPE bag which was then filled with nitrogen and tied with a strip seal. This bag was then placed into another transparent LDPE bag which was also filled with nitrogen. A silica gel packet was placed between the two bags before the outermost bag was tied with a strip seal. These bags were then placed in a triple laminated sun light barrier bag which was sealed with a heat sealer. The bags were kept in a HDPE container.
(§2) NUC-3373 was initially assayed by HPLC after manufacture (0 months) then after 1 and 2 and/or 3 and 6 months of storage at 2-8° C., 25° C. or 40° C.

[2] = 6 month dry powder stability, Alpha Naphthol content by HPLC; format: physicochemical
From the text: as §1, §2
The Alpha Naphthol content of the same batches was also determined by HPLC. The levels of the alpha naphthol impurity is a key indicator of stability of the tested material.

[3] = Solution stability, alpha naphthol (0.60 RRT) in DMA:Saline (80:20 v/v); format: physicochemical; parameters: 0.60 RRT (Alpha Naphthol): unit not given here; details: for 0.60 RRT (Alpha Naphthol): 400 mg/mL in DMA:Saline (80:20 v/v)
Procedure: Stability data is also provided in Table 4, which compares the levels of alpha naphthol (0.60 RRT) present in solutions of 400 mg/mL NUC-3373, prepared by Example 3 or 4, above, in DMA:Saline (80:20 v/v) at different temperatures measured over set periods of time. The tested solutions are suitable for infusion and injection and the temperatures and times measured are representative of the environments that solutions suitable for infusion and injection would typically be stored in.
In Table 4 the two values provided for each temperature at each time period, separated by “/”, represent different preparations (samples) of that synthesis.

[4] = 12 month dry powder stability, HPLC assay; format: physicochemical
From the text: as §1, with “3, above,” for “3 and Comparative Example 4”, “container. The NUC-3373 was initially assayed by HPLC after manufacture then after 3, 6, 9 and 12 months of storage.” for “container.”

[5] = Solution stability in DMA:Saline (80:20 v/v) by UPLC; format: physicochemical; details: 2-8° C.; for Assay / Purity / Total Impurities: DMA:Saline (80:20 v/v) solution, UPLC
Procedure: The inventors have found in further work that DMA:Saline (80:20 v/v) solutions of samples obtained according to the process of the invention show no loss of purity or assay, and alpha naphthol impurity up to 12 months at 2-8° C.

a range of cancer models = details: compared with 5-fluorouracil; cited from earlier work
tumour cells = details: non-clinical studies, compared with 5-FU and capecitabine; cited from earlier work
[6] = dog, compared with 5-FU; cited from earlier work

Structure (SMILES): C[C@H](NP(=O)(OC[C@H]1O[C@@H](n2cc(F)c(=O)[nH]c2=O)CC1O)Oc1cccc2ccccc12)C(=O)OCc1ccccc1 (stereo partly drawn) [Example 3, Batch 2, 5-fluoro-2′-deoxyuridine-5′-O-[1-naphthyl (benzoxy-L-alaninyl)] phosphate]
- Decrease after 6 months, HPLC assay ([1]; 2-8 ° C.): None
- HPLC assay (% w/w on anhydrous and solvent free basis) ([1]; 2-8 ° C., 0 months): 100.2 % w/w
- HPLC assay (% w/w on anhydrous and solvent free basis) ([1]; 2-8 ° C., 3 months): 101.3 % w/w
- HPLC assay (% w/w on anhydrous and solvent free basis) ([1]; 2-8 ° C., 6 months): 100.4 % w/w
- Decrease after 6 months, HPLC assay ([1]; 25 ° C.): None
- HPLC assay (% w/w on anhydrous and solvent free basis) ([1]; 25 ° C., 0 months): 100.2 % w/w
- HPLC assay (% w/w on anhydrous and solvent free basis) ([1]; 25 ° C., 3 months): 101.1 % w/w
- HPLC assay (% w/w on anhydrous and solvent free basis) ([1]; 25 ° C., 6 months): 100.7 % w/w
- Decrease after 6 months, HPLC assay ([1]; 40 ° C.): None
- HPLC assay (% w/w on anhydrous and solvent free basis) ([1]; 40 ° C., 0 months): 100.2 % w/w
- HPLC assay (% w/w on anhydrous and solvent free basis) ([1]; 40 ° C., 1 month): 99.7 % w/w
- HPLC assay (% w/w on anhydrous and solvent free basis) ([1]; 40 ° C., 2 months): 100.9 % w/w
- HPLC assay (% w/w on anhydrous and solvent free basis) ([1]; 40 ° C., 3 months): 101.5 % w/w
- HPLC assay (% w/w on anhydrous and solvent free basis) ([1]; 40 ° C., 6 months): 100.4 % w/w
- Increase after 6 months, Alpha Naphthol by HPLC ([2]; 2-8 ° C.): None
- Alpha Naphthol by HPLC (% w/w) ([2]; 2-8 ° C., 0 months): 0.44 % w/w
- Alpha Naphthol by HPLC (% w/w) ([2]; 2-8 ° C., 3 months): 0.46 % w/w
- Alpha Naphthol by HPLC (% w/w) ([2]; 2-8 ° C., 6 months): 0.43 % w/w
- Increase after 6 months, Alpha Naphthol by HPLC ([2]; 25 ° C.): None
- Alpha Naphthol by HPLC (% w/w) ([2]; 25 ° C., 0 months): 0.44 % w/w
- Alpha Naphthol by HPLC (% w/w) ([2]; 25 ° C., 3 months): 0.45 % w/w
- Alpha Naphthol by HPLC (% w/w) ([2]; 25 ° C., 6 months): 0.42 % w/w
- Increase after 6 months, Alpha Naphthol by HPLC ([2]; 40 ° C.): None
- Alpha Naphthol by HPLC (% w/w) ([2]; 40 ° C., 0 months): 0.44 % w/w
- Alpha Naphthol by HPLC (% w/w) ([2]; 40 ° C., 1 month): 0.44 % w/w
- Alpha Naphthol by HPLC (% w/w) ([2]; 40 ° C., 2 months): 0.42 % w/w
- Alpha Naphthol by HPLC (% w/w) ([2]; 40 ° C., 3 months): 0.42 % w/w
- Alpha Naphthol by HPLC (% w/w) ([2]; 40 ° C., 6 months): 0.38 % w/w
- 0.60 RRT (Alpha Naphthol) ([3]; After 1 month at 2-8° C., first preparation (before "/")): 0.02/0.02
- 0.60 RRT (Alpha Naphthol) ([3]; After 1 month at 2-8° C., second preparation (after "/")): 0.02/0.02
- 0.60 RRT (Alpha Naphthol) ([3]; After 1 month at 25 ± 5° C., first preparation (before "/")): 0.04/0.04
- 0.60 RRT (Alpha Naphthol) ([3]; After 1 month at 25 ± 5° C., second preparation (after "/")): 0.04/0.04
- 0.60 RRT (Alpha Naphthol) ([3]; After 3 months at 2-8° C., first preparation (before "/")): 0.02/0.02
- 0.60 RRT (Alpha Naphthol) ([3]; After 3 months at 2-8° C., second preparation (after "/")): 0.02/0.02
- 0.60 RRT (Alpha Naphthol) ([3]; After 3 months at 25 ± 5° C., first preparation (before "/")): 0.11/0.11
- 0.60 RRT (Alpha Naphthol) ([3]; After 3 months at 25 ± 5° C., second preparation (after "/")): 0.11/0.11
- 0.60 RRT (Alpha Naphthol) ([3]; After 6 months at 2-8° C., first preparation (before "/")): 0.03
- 0.60 RRT (Alpha Naphthol) ([3]; After 6 months at 2-8° C., second preparation (after "/")): 0.02
- 0.60 RRT (Alpha Naphthol) ([3]; After 6 months at 25 ± 5° C., first preparation (before "/")): 0.34
- 0.60 RRT (Alpha Naphthol) ([3]; After 6 months at 25 ± 5° C., second preparation (after "/")): 0.35
- 0.60 RRT (Alpha Naphthol) ([3]; After 9 months at 2-8° C., first preparation (before "/")): 0.03/0.03
- 0.60 RRT (Alpha Naphthol) ([3]; After 9 months at 2-8° C., second preparation (after "/")): 0.03/0.03
- 0.60 RRT (Alpha Naphthol) ([3]; After 9 months at 25 ± 5° C., first preparation (before "/")): 0.89/0.89
- 0.60 RRT (Alpha Naphthol) ([3]; After 9 months at 25 ± 5° C., second preparation (after "/")): 0.89/0.89
- 0.60 RRT (Alpha Naphthol) ([3]; After 12 months at 2-8° C., first preparation (before "/")): 0.04/0.04
- 0.60 RRT (Alpha Naphthol) ([3]; After 12 months at 2-8° C., second preparation (after "/")): 0.04/0.04
- 0.60 RRT (Alpha Naphthol) ([3]; After 12 months at 25 ± 5° C., first preparation (before "/")): 1.60/1.60
- 0.60 RRT (Alpha Naphthol) ([3]; After 12 months at 25 ± 5° C., second preparation (after "/")): 1.60/1.60
- 0.60 RRT (Alpha Naphthol) ([3]; After 15 days at 2-8° C., first preparation (before "/")): 0.01/0.01
- 0.60 RRT (Alpha Naphthol) ([3]; After 15 days at 2-8° C., second preparation (after "/")): 0.01/0.01
- 0.60 RRT (Alpha Naphthol) ([3]; After 15 days at 25 ± 5° C., first preparation (before "/")): 0.03
- 0.60 RRT (Alpha Naphthol) ([3]; After 15 days at 25 ± 5° C., second preparation (after "/")): 0.02
- 0.60 RRT (Alpha Naphthol) ([3]; Initial): 0.01

Structure (SMILES): C[C@H](NP(=O)(OC[C@H]1O[C@@H](n2cc(F)c(=O)[nH]c2=O)CC1O)Oc1cccc2ccccc12)C(=O)OCc1ccccc1 (stereo partly drawn) [NUC-3373, 5-fluoro-2′-deoxyuridine-5′-O-[1-naphthyl (benzoxy-L-alaninyl)] phosphate]
- HPLC assay (% w/w on anhydrous and solvent free basis) ([4]; 5 ± 3° C., 3rd month): 99.9 % w/w
- HPLC assay (% w/w on anhydrous and solvent free basis) ([4]; 5 ± 3° C., 6th month): 100.9 % w/w
- HPLC assay (% w/w on anhydrous and solvent free basis) ([4]; 5 ± 3° C., 9th month): 101.5 % w/w
- HPLC assay (% w/w on anhydrous and solvent free basis) ([4]; 5 ± 3° C., 12th month): 99.4 % w/w
- HPLC assay (% w/w on anhydrous and solvent free basis) ([4]; 5 ± 3° C., Initial): 99.6 % w/w
- HPLC assay (% w/w on anhydrous and solvent free basis) ([4]; 25 ± 2° C., 3rd month): 99.6 % w/w
- HPLC assay (% w/w on anhydrous and solvent free basis) ([4]; 25 ± 2° C., 6th month): 100.7 % w/w
- HPLC assay (% w/w on anhydrous and solvent free basis) ([4]; 25 ± 2° C., 9th month): 101.5 % w/w
- HPLC assay (% w/w on anhydrous and solvent free basis) ([4]; 25 ± 2° C., 12th month): 99.4 % w/w
- HPLC assay (% w/w on anhydrous and solvent free basis) ([4]; 25 ± 2° C., Initial): 99.6 % w/w
- time chemically stable ([4]; at both 2-8° C. and 15-30° C.): at least 12 months
- thermal stability compared with other methods of preparation ([1]; Tables 2 and 3, prepared according to the process of the invention): thermally more stable than those prepared by other methods
- stability of solutions compared with other methods of preparation ([3]; solutions in DMA:Saline (80:20 v/v), particularly at room temperature): more stable than those prepared by other methods
- Assay ([5]; 3rd month): 99%
- Purity ([5]; 3rd month): 99.9%
- Total Impurities ([5]; 3rd month): 0.07%
- Assay ([5]; 6th month): 101%
- Purity ([5]; 6th month): 99.9%
- Total Impurities ([5]; 6th month): 0.08%
- Assay ([5]; 12th month): 101%
- Purity ([5]; 12th month): 99.9%
- Total Impurities ([5]; 12th month): 0.09%
- Assay ([5]; Initial): 101%
- Purity ([5]; Initial): 99.9%
- Total Impurities ([5]; Initial): 0.07%
- time solutions chemically and physically stable ([5]; DMA:Saline (80:20 v/v) solutions): at least 12 months
- activity in vitro against a range of cancer models (a range of cancer models): outstanding and far superior to the results obtained with 5-fluorouracil
- inhibition of tumour cell growth (tumour cells): much greater inhibition of tumour cell growth
- tolerability [6]: significantly better tolerated than 5-FU
